Laboratory results as given in patent US7008905B2, “Method of combating undesired plant growth on cereals” (BASF Aktiengesellschaft, priority 2000, dated 2006).

Experiments:
Assay type in all cases: in vivo
barley = experiment: Pre-emergence test, tolerance in barley
Description: The pre-emergence tests involve spraying a liquid formulation of the compound onto the soil in which the seeds of the plant species mentioned above has recently been sown.
The soil used in the tests is a prepared horticultural loam. The formulations used in the tests are prepared from solutions of the test compounds in acetone containing 0.4% by weight of an alkylphenol/ethylene oxide condensate available under the trade mark TRITON X-155.
These acetone solutions are diluted with water and the resulting formulations applied at dosage levels corresponding to 15 g, 30 g, 60 g, 120 g or 240 g of active material per hectare in a volume equivalent to 900 liters per hectare. In these tests untreated sown soil is used as control. The herbicidal effects of the test compounds are assessed visually three weeks after spraying the soil and are recorded an a 0 to 100 scale. A rating 0 indicates growth as untreated control, a rating 100 indicates death. An increase of 10 unit an the linear scale approximates to a 10% increase in the level of effect. The results of the assessment are set out in Tables 1 to 4.

Lamium purpureum = experiment: Pre-emergence test, weed control; conditions: 3 weeks after treatment, rating 0-100 (100=death), Table 1
In short: (§1)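 Scores from 0 (growth like untreated control) to 100 (death) were assigned by eye three weeks post-spray, with 10 units approximating a 10% change in effect. Treatment was applied to freshly sown loam at 15 to 240 g active material per hectare.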

Alopecurus myosuroides = experiment: Pre-emergence test, weed control; conditions: 3 weeks after treatment, rating 0-100 (100=death), Table 1
In short: as §1

Poa annua = experiment: Pre-emergence test, weed control; conditions: 3 weeks after treatment, rating 0-100 (100=death), Table 1
In short: as §1

Stellaria media = experiment: Pre-emergence test, weed control; conditions: 3 weeks after treatment, rating 0-100 (100=death), Table 1
In short: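 Visual 0–100 rating, three weeks after treatment, where 0 equals untreated sown soil and 100 means plant death. Sown horticultural loam received an aqueous dilution of acetone solution (0.4% w/w alkylphenol/ethylene oxide condensate) at 15–240 g/ha, 900 l/ha spray volume.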

Polygonum convolvulus = experiment: Pre-emergence test, weed control; conditions: 3 weeks after treatment, rating 0-100 (100=death), Table 1
In short: as §1

[1] = test system: grasses and broadleaf weeds; experiment: Post-emergence test, overall weed control
Description: These acetone solutions are diluted with water and the resulting formulations applied at dosage levels equivalent of about 0.030 to 0.240 kg per hectare of test compound per pot. After spraying the plants are placed an greenhouse benches and are cared for in the usual manner, commensurate with conventional greenhouse practices. From 2 to 4 weeks after treatment, the seedling plants are examined and rated according to the rating system provided above. A rating 0 indicates growth as untreated control, a rating 100 indicates death.

wheat = experiment: Pre-emergence test, tolerance in wheat
In short: as §1

With Cc1cnc(-c2ccc(C(F)(F)F)cc2)nc1Oc1cccc(C(F)(F)F)c1 [REF-1] the “dose at which sufficiently selective in barley” value (barley) was “did not exhibit acceptable tolerance in barley at any dose”, the “LAMPU weed control rating” value (Lamium purpureum; 0.015 kg/ha) was 100 and the “LAMPU weed control rating” value (Lamium purpureum; 0.030 kg/ha) was 100. For the same compound, the “LAMPU weed control rating” value (Lamium purpureum; 0.060 kg/ha) was 100, the “LAMPU weed control rating” value (Lamium purpureum; 0.1 kg/ha) was 100 and the “LAMPU weed control rating” value (Lamium purpureum; 0.240 kg/ha) was 100. For the same compound, the “ALOMY weed control rating” value (Alopecurus myosuroides; 0.015 kg/ha) was 65, the “ALOMY weed control rating” value (Alopecurus myosuroides; 0.030 kg/ha) was 92 and the “ALOMY weed control rating” value (Alopecurus myosuroides; 0.060 kg/ha) was 100. For the same compound, the “ALOMY weed control rating” value (Alopecurus myosuroides; 0.1 kg/ha) was 100, the “ALOMY weed control rating” value (Alopecurus myosuroides; 0.240 kg/ha) was 100 and the “POAAN weed control rating” value (Poa annua; 0.015 kg/ha) was 98. For the same compound, the “POAAN weed control rating” value (Poa annua; 0.030 kg/ha) was 100, the “POAAN weed control rating” value (Poa annua; 0.060 kg/ha) was 100 and the “POAAN weed control rating” value (Poa annua; 0.1 kg/ha) was 100. For the same compound, the “POAAN weed control rating” value (Poa annua; 0.240 kg/ha) was 100, the “STEME weed control rating” value (Stellaria media; 0.030 kg/ha) was 90 and the “STEME weed control rating” value (Stellaria media; 0.060 kg/ha) was 100. For the same compound, the “STEME weed control rating” value (Stellaria media; 0.1 kg/ha) was 100, the “STEME weed control rating” value (Stellaria media; 0.240 kg/ha) was 100 and the “POLCO weed control rating” value (Polygonum convolvulus; 0.015 kg/ha) was 92. For the same compound, the “POLCO weed control rating” value (Polygonum convolvulus; 0.030 kg/ha) was 93, the “POLCO weed control rating” value (Polygonum convolvulus; 0.060 kg/ha) was 100 and the “POLCO weed control rating” value (Polygonum convolvulus; 0.1 kg/ha) was 100. The “POLCO weed control rating” value (Polygonum convolvulus; 0.240 kg/ha) was 100.

With Cc1nc(-c2ccc(C(F)(F)F)cc2)nc(Oc2cccc(C(F)(F)F)c2)c1C [REF-2] the “LAMPU weed control rating” value (Lamium purpureum; 0.030 kg/ha) was 40, the “LAMPU weed control rating” value (Lamium purpureum; 0.060 kg/ha) was 75 and the “LAMPU weed control rating” value (Lamium purpureum; 0.120 kg/ha) was 98. The “LAMPU weed control rating” value (Lamium purpureum; 0.240 kg/ha) was 100, the “ALOMY weed control rating” value (Alopecurus myosuroides; 0.015 kg/ha) was 0 and the “ALOMY weed control rating” value (Alopecurus myosuroides; 0.030 kg/ha) was 5. The “ALOMY weed control rating” value (Alopecurus myosuroides; 0.060 kg/ha) was 15, the “ALOMY weed control rating” value (Alopecurus myosuroides; 0.120 kg/ha) was 65 and the “ALOMY weed control rating” value (Alopecurus myosuroides; 0.240 kg/ha) was 70. The “POAAN weed control rating” value (Poa annua; 0.015 kg/ha) was 65, the “POAAN weed control rating” value (Poa annua; 0.030 kg/ha) was 95 and the “POAAN weed control rating” value (Poa annua; 0.060 kg/ha) was 97. The “POAAN weed control rating” value (Poa annua; 0.120 kg/ha) was 100, the “POAAN weed control rating” value (Poa annua; 0.240 kg/ha) was 100 and the “STEME weed control rating” value (Stellaria media; 0.015 kg/ha) was 0. The “STEME weed control rating” value (Stellaria media; 0.060 kg/ha) was 20, the “STEME weed control rating” value (Stellaria media; 0.120 kg/ha) was 97 and the “STEME weed control rating” value (Stellaria media; 0.240 kg/ha) was 100. The “POLCO weed control rating” value (Polygonum convolvulus; 0.015 kg/ha) was 0, the “POLCO weed control rating” value (Polygonum convolvulus; 0.030 kg/ha) was 0 and the “POLCO weed control rating” value (Polygonum convolvulus; 0.060 kg/ha) was 0. For the same compound, the “POLCO weed control rating” value (Polygonum convolvulus; 0.120 kg/ha) was 30 and the “POLCO weed control rating” value (Polygonum convolvulus; 0.240 kg/ha) was 80.

With CCc1cc(Oc2cccc(C(F)(F)F)c2)nc(-c2ccc(C(F)(F)F)cc2)n1 [REF-3] the “weed control at wheat selective doses” value [1] was “incomplete”, the “maximum tolerated dose in wheat / dose at which sufficiently selective in wheat” value (wheat; in vivo) was 60 g/ha and the “LAMPU weed control rating” value (Lamium purpureum; 0.015 kg/ha) was 100. The “LAMPU weed control rating” value (Lamium purpureum; 0.030 kg/ha) was 100, the “LAMPU weed control rating” value (Lamium purpureum; 0.060 kg/ha) was 100 and the “LAMPU weed control rating” value (Lamium purpureum; 0.120 kg/ha) was 100. For the same compound, the “LAMPU weed control rating” value (Lamium purpureum; 0.240 kg/ha) was 100, the “ALOMY weed control rating” value (Alopecurus myosuroides; 0.015 kg/ha) was 55 and the “ALOMY weed control rating” value (Alopecurus myosuroides; 0.030 kg/ha) was 98. The “ALOMY weed control rating” value (Alopecurus myosuroides; 0.060 kg/ha) was 98, the “ALOMY weed control rating” value (Alopecurus myosuroides; 0.120 kg/ha) was 100 and the “ALOMY weed control rating” value (Alopecurus myosuroides; 0.240 kg/ha) was 100. For the same compound, the “POAAN weed control rating” value (Poa annua; 0.015 kg/ha) was 100, the “POAAN weed control rating” value (Poa annua; 0.030 kg/ha) was 100 and the “POAAN weed control rating” value (Poa annua; 0.060 kg/ha) was 100. For the same compound, the “POAAN weed control rating” value (Poa annua; 0.120 kg/ha) was 100, the “POAAN weed control rating” value (Poa annua; 0.240 kg/ha) was 100 and the “STEME weed control rating” value (Stellaria media; 0.015 kg/ha) was 98. The “STEME weed control rating” value (Stellaria media; 0.030 kg/ha) was 100, the “STEME weed control rating” value (Stellaria media; 0.060 kg/ha) was 100 and the “STEME weed control rating” value (Stellaria media; 0.120 kg/ha) was 100. The “STEME weed control rating” value (Stellaria media; 0.240 kg/ha) was 100, the “POLCO weed control rating” value (Polygonum convolvulus; 0.015 kg/ha) was 25 and the “POLCO weed control rating” value (Polygonum convolvulus; 0.030 kg/ha) was 70. For the same compound, the “POLCO weed control rating” value (Polygonum convolvulus; 0.060 kg/ha) was 80, the “POLCO weed control rating” value (Polygonum convolvulus; 0.120 kg/ha) was 100 and the “POLCO weed control rating” value (Polygonum convolvulus; 0.240 kg/ha) was 100.

In the case of FC(F)(F)c1ccc(-c2nccc(Oc3cccc(C(F)(F)F)c3)n2)cc1 [TTP, 4-(3-trifluoromethylphenoxy)-2-(4-trifluoromethyl-phenyl)-pyrimidine], the “maximum tolerated dose in wheat / dose at which sufficiently selective in wheat” value (wheat; pre-emergence) is reported as 240 g/ha, the “dose at which sufficiently selective in barley” value (barley) is reported as 15 g/ha and the “LAMPU weed control rating” value (Lamium purpureum; 0.015 kg/ha) is reported as 99. The “LAMPU weed control rating” value (Lamium purpureum; 0.030 kg/ha) was 100, the “LAMPU weed control rating” value (Lamium purpureum; 0.060 kg/ha) was 100 and the “LAMPU weed control rating” value (Lamium purpureum; 0.120 kg/ha) was 100. The “LAMPU weed control rating” value (Lamium purpureum; 0.240 kg/ha) was 100, the “ALOMY weed control rating” value (Alopecurus myosuroides; 0.015 kg/ha) was 15 and the “ALOMY weed control rating” value (Alopecurus myosuroides; 0.030 kg/ha) was 50. For the same compound, the “ALOMY weed control rating” value (Alopecurus myosuroides; 0.060 kg/ha) was 90, the “ALOMY weed control rating” value (Alopecurus myosuroides; 0.120 kg/ha) was 100 and the “ALOMY weed control rating” value (Alopecurus myosuroides; 0.240 kg/ha) was 100. For the same compound, the “POAAN weed control rating” value (Poa annua; 0.015 kg/ha) was 100, the “POAAN weed control rating” value (Poa annua; 0.030 kg/ha) was 100 and the “POAAN weed control rating” value (Poa annua; 0.060 kg/ha) was 100. For the same compound, the “POAAN weed control rating” value (Poa annua; 0.120 kg/ha) was 100, the “POAAN weed control rating” value (Poa annua; 0.240 kg/ha) was 100 and the “STEME weed control rating” value (Stellaria media; 0.015 kg/ha) was 99. For the same compound, the “STEME weed control rating” value (Stellaria media; 0.030 kg/ha) was 99, the “STEME weed control rating” value (Stellaria media; 0.060 kg/ha) was 100 and the “STEME weed control rating” value (Stellaria media; 0.120 kg/ha) was 100. The “STEME weed control rating” value (Stellaria media; 0.240 kg/ha) was 100, the “POLCO weed control rating” value (Polygonum convolvulus; 0.015 kg/ha) was 80 and the “POLCO weed control rating” value (Polygonum convolvulus; 0.030 kg/ha) was 100. For the same compound, the “POLCO weed control rating” value (Polygonum convolvulus; 0.060 kg/ha) was 100, the “POLCO weed control rating” value (Polygonum convolvulus; 0.120 kg/ha) was 100 and the “POLCO weed control rating” value (Polygonum convolvulus; 0.240 kg/ha) was 100.
